Test results taken from patent CN113813388A, “一种眼用纳米胶束及其制备方法和应用” (Zhejiang University ZJU, priority 2021, dated 2021).

Experiments:
[1] = after topical ocular administration; cited from earlier work
[2] = H2O2 (ROS) scavenging assay with hydrogen peroxide detection kit (S0038, Beyotime); type: biochemical; conditions: within 15 min; Tempo concentration 100 μg/mL-1; 500 μM H2O2 in 0.01 M PBS pH 7.4

CC1(C)CCCC(C)(C)N1[O] [Tempo]
rapidly cleared, time after application [1]: 15 to 30 s
eliminated H2O2 [2]: 78.9%
